Tests used:
KRas G12D = KRas G12D (Homo sapiens, UniProt P01116, G12D); assay: biochemical;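 also: TR-FRET displacement binding assay on KRas, read after a one-hour incubation at room temperature, IC50 fitted from percent-of-control values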
Procedure: (§1) The ability of a compound to bind to KRas was measured using a TR-FRET displacement assay. […] After a 60-minute incubation at room temperature, the reaction was measured using a BMG LABTECH CLARIO star Plus via TR-FRET. […] The POC values were fit to a 4-parameter IC50 equation and the IC50 value reported.

KRas G12V = KRas G12V (Homo sapiens, UniProt P01116, G12V); assay: biochemical;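 also: KRas binding measured by TR-FRET displacement at room temperature, IC50 fitted from percent of control values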
Procedure: as §1

KRas G12R = KRas G12R (Homo sapiens, UniProt P01116, G12R); assay: biochemical;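 also: TR-FRET displacement assay of compound binding to KRas, read after one hour at room temperature, potency from a four-parameter fit of percent-of-control values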
Procedure: as §1

pERK in MKN1 cells = assay: Inhibition of KRas phosphorylation of ERK (Cisbio HTRF pERK assay); settings: Homo sapiens, MKN-1, 3 h, read-out: Inhibition (HTRF IC50) of KRas-mediated Phosphorylation of ERK, MKN1
pERK in PSN1 cells = assay: as above; settings: Homo sapiens, PSN1, 3 h, read-out: Inhibition (HTRF IC50) of KRas-mediated Phosphorylation of ERK, PSN1
Procedure: (§2) To harvest cells from flask using 0.05% Trypsin/EDTA solution. Add 10 mL of media to stop trypsinizing. Pipette the cells into a conical bottom 50 mL centrifuge tube and centrifuge 5 min×1000 rpm. • 2. Re-suspend the cell pellet in media, take a cell count, and then adjust the cell density using fresh media. • 3. Seed 6,000 cells into cell culture plate with 50 μL media. […] Incubate cell plate overnight in a 37° C., 5% CO2 incubator. • Compound titrations • 1. Use Tecan to complete the compound addition. Compounds start from 10 uM top, 3-fold dilution, and 10 doses. The final DMSO concentration is 0.8%. Dispensed 0.2 uM Trametinib as Min control. • 2. Incubate cell plate for 3 hrs in the incubator. • Detection with cisbio pERK HTRF kit • 1. […] At the end of the compound treatment, flick-off the media. • 3. Add 35 μL of lysis buffer per well using a Multidrop Combi. Then place on a plate agitator shaking at 300 rpm at 4° C. for 40 mins. • 4. Make up the HTRF antibody buffer. For each assay plate, mix 50 μL of d2-conjugate antibody with 950 μL of detection buffer. Similarly, mix 50 μL of Cryptate antibody with 950 μL of detection buffer. Then mix the two diluted antibodies together. • 5. Dispense 3.4 μL the antibody buffer to wells of an empty assay plate. Seal the plate and centrifuge plate 30 sec×1000 rpm. • 6. At the end of the 4° C. lysis, centrifuge the lysate plates 3 mins×1500 rpm. • 7. Use the Bravo to transfer 13.6 μL of lysate from cell culture plate to assay plate.
(§3) Then incubate assay plate for 2 hrs at room temperature. […] At the end of incubation, read plate on the Envision after centrifuging plate 30 sec× • 1000 rpm.

pERK in ASPC1 cells = assay: as above; settings: Homo sapiens, ASPC1, read-out: Inhibition (HTRF IC50) of KRas-mediated Phosphorylation of ERK, AsPC-1
pERK in H727 cells = assay: as above; settings: Homo sapiens, NCI-H727, read-out: Inhibition (HTRF IC50) of KRas-mediated Phosphorylation of ERK, H727
pERK in A549 cells = assay: as above; settings: Homo sapiens, A549, read-out: Inhibition (HTRF IC50) of KRas-mediated Phosphorylation of ERK, A549
pERK in H460 cells = assay: as above; settings: Homo sapiens, NCI-H460, read-out: Inhibition (HTRF IC50) of KRas-mediated Phosphorylation of ERK, H460
Procedure: as §2, §3

pERK in HCT116 cells = assay: as above; settings: Homo sapiens, HCT-116, read-out: Inhibition (HTRF IC50) of KRas-mediated Phosphorylation of ERK, HCT116
Procedure: as §2, §3

pERK in H358 cells = assay: as above; settings: Homo sapiens, NCI-H358, read-out: Inhibition (HTRF IC50) of KRas-mediated Phosphorylation of ERK, H358
Procedure: as §2, §3

Sequence of KRas G12R (P01116 1-169 isoform P01116-2 G12R): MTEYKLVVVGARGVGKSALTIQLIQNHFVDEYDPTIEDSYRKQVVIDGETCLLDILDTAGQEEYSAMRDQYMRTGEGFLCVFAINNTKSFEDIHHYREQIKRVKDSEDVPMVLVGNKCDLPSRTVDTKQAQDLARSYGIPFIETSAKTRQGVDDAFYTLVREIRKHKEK
Sequence of KRas G12D (P01116 1-169 isoform P01116-2 G12D): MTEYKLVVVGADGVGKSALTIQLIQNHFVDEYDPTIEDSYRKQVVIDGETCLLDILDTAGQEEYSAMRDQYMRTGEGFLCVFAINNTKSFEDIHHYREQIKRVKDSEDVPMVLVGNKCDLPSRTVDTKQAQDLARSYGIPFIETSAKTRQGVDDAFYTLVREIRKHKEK
Sequence of KRas G12V (P01116 1-169 isoform P01116-2 G12V): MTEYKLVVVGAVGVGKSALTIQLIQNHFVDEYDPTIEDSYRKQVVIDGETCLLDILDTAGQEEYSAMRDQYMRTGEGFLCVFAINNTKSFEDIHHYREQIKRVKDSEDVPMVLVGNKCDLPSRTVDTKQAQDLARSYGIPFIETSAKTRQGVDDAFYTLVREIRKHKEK

IC50 (KRas G12D) [nM] | IC50 (KRas G12V) [nM] | IC50 (KRas G12R) [nM] | IC50 (pERK in MKN1 cells) [nM] | IC50 (pERK in PSN1 cells) [nM] | IC50 (pERK in ASPC1 cells) [nM] | IC50 (pERK in H727 cells) [nM] | IC50 (pERK in A549 cells) [nM] | IC50 (pERK in H460 cells) [nM] | IC50 (pERK in HCT116 cells) [nM] | IC50 (pERK in H358 cells) [nM] | SMILES
≤ 2 | ≤ 2 | ≤ 2 | 14 | ≥ 10000 | 14 | 48 | 65 | 304 | 623 | 17 | CCc1c(F)ccc2cc(O)cc(-c3ncc4c(N5CCCn6nc(C(=O)N7CCOCC7)cc6C5)nc(OC[C@@]56CCCN5C[C@H](F)C6)nc4c3F)c12 [Example 354, (5-(7-(8-ethyl-7-fluoro-3-hydroxynaphthalen-1-yl)-8-fluoro-2-(((2R,7aS)-2-fluorohexahydro-1H-pyrrolizin-7a-yl)methoxy)pyrido[4,3-d]pyrimidin-4-yl)-5,6,7,8-tetrahydro-4H-pyrazolo[1,5-a][1,4]diazepin-2-yl)(morpholino)methanone]
≤ 2 | ≤ 2 | ≤ 2 | 17 | 6770 | 8 | 30 | 140 | 270 | 471 | 16 | CCc1c(F)ccc2cc(O)cc(-c3ncc4c(N5CCCn6nc(C(=O)N7CCCC7)cc6C5)nc(OC[C@@]56CCCN5C[C@H](F)C6)nc4c3F)c12 [Example 355, (5-(7-(8-ethyl-7-fluoro-3-hydroxynaphthalen-1-yl)-8-fluoro-2-(((2R,7aS)-2-fluorohexahydro-1H-pyrrolizin-7a-yl)methoxy)pyrido[4,3-d]pyrimidin-4-yl)-5,6,7,8-tetrahydro-4H-pyrazolo[1,5-a][1,4]diazepin-2-yl)(pyrrolidin-1-yl)methanone]
≤ 2 | ≤ 2 | ≤ 2 | 40 | 9300 | 16 | 63 | 232 | 458 | 767 | 20 | CCNC(=O)c1cc2n(n1)CCCN(c1nc(OC[C@@]34CCCN3C[C@H](F)C4)nc3c(F)c(-c4cc(O)cc5ccc(F)c(CC)c45)ncc13)C2 [Example 356, N-ethyl-5-(7-(8-ethyl-7-fluoro-3-hydroxynaphthalen-1-yl)-8-fluoro-2-(((2R,7aS)-2-fluorohexahydro-1H-pyrrolizin-7a-yl)methoxy)pyrido[4,3-d]pyrimidin-4-yl)-5,6,7,8-tetrahydro-4H-pyrazolo[1,5-a][1,4]diazepine-2-carboxamide]
≤ 2 | ≤ 2 | ≤ 2 | 71 | 7480 | 13 | 63 | 576 | 805 | 1350 | 27 | CCc1c(F)ccc2cc(O)cc(-c3ncc4c(N5CCCn6nc(C(=O)NC(C)C)cc6C5)nc(OC[C@@]56CCCN5C[C@H](F)C6)nc4c3F)c12 [Example 357, 5-(7-(8-ethyl-7-fluoro-3-hydroxynaphthalen-1-yl)-8-fluoro-2-(((2R,7aS)-2-fluorohexahydro-1H-pyrrolizin-7a-yl)methoxy)pyrido[4,3-d]pyrimidin-4-yl)-N-isopropyl-5,6,7,8-tetrahydro-4H-pyrazolo[1,5-a][1,4]diazepine-2-carboxamide]
≤ 2 | ≤ 2 | ≤ 2 | 4 | 9770 | 12 | 15 | 44 | 131 | 167 | 3 | CCc1c(F)ccc2cc(O)cc(-c3ncc4c(N5CCCn6nc(C(=O)N(C)CC)cc6C5)nc(OC[C@@]56CCCN5C[C@H](F)C6)nc4c3F)c12 [Example 358, N-ethyl-5-(7-(8-ethyl-7-fluoro-3-hydroxynaphthalen-1-yl)-8-fluoro-2-(((2R,7aS)-2-fluorotetrahydro-1H-pyrrolizin-7a(5H)-yl)methoxy)pyrido[4,3-d]pyrimidin-4-yl)-N-methyl-5,6,7,8-tetrahydro-4H-pyrazolo[1,5-a][1,4]diazepine-2-carboxamide]
≤ 2 | ≤ 2 | ≤ 2 | 3 | 6820 | 8 | 49 | 122 | 85 | 231 | 17 | CCc1c(F)ccc2cc(O)cc(-c3ncc4c(N5CCOC[C@@](C)(O)C5)nc(OCC5(CN(C)C)CC5)nc4c3F)c12 [Example 361, (S)-4-(2-((1-((dimethylamino)methyl)cyclopropyl)methoxy)-7-(8-ethyl-7-fluoro-3-hydroxynaphthalen-1-yl)-8-fluoropyrido[4,3-d]pyrimidin-4-yl)-6-methyl-1,4-oxazepan-6-ol]

The remaining lines, values behind:

SMILES | IC50 (KRas G12D) [nM] | IC50 (KRas G12V) [nM] | IC50 (KRas G12R) [nM] | IC50 (pERK in MKN1 cells) [nM] | IC50 (pERK in PSN1 cells) [nM] | IC50 (pERK in ASPC1 cells) [nM] | IC50 (pERK in H727 cells) [nM] | IC50 (pERK in A549 cells) [nM] | IC50 (pERK in H460 cells) [nM] | IC50 (pERK in HCT116 cells) [nM] | IC50 (pERK in H358 cells) [nM]
CCc1c(F)ccc2cc(O)cc(-c3ncc4c(N5CCCn6nc(C(=O)NC)cc6C5)nc(OC[C@@]56CCCN5C[C@H](F)C6)nc4c3F)c12 [Example 339, 5-(7-(8-ethyl-7-fluoro-3-hydroxynaphthalen-1-yl)-8-fluoro-2-(((2R,7aS)-2-fluorotetrahydro-1H-pyrrolizin-7a(5H)-yl)methoxy)pyrido[4,3-d]pyrimidin-4-yl)-N-methyl-5,6,7,8-tetrahydro-4H-pyrazolo[1,5-a][1,4]diazepine-2-carboxamide] | ≤ 2 | ≤ 2 | ≤ 2 | 12 | ≥ 10000 | 48 | 72 | 557 | 991 | 826 | 95
CCc1c(F)ccc2cc(O)cc(-c3ncc4c(N5CCCn6nc(NC)cc6C5)nc(OC[C@@]56CCCN5C[C@H](F)C6)nc4c3F)c12 [Example 340, 5-ethyl-6-fluoro-4-(8-fluoro-2-(((2R,7aS)-2-fluorohexahydro-1H-pyrrolizin-7a-yl)methoxy)-4-(2-(methylamino)-7,8-dihydro-4II-pyrazolo[1,5-a][1,4]diazepin-5(6H)-yl)pyrido[4,3-d]pyrimidin-7-yl)naphthalen-2-ol] | ≤ 2 | ≤ 2 | ≤ 2 | 26 | ≥ 10000 | 39 | 149 | 353 | 373 | 999 | 55
CCc1c(F)ccc2cc(O)cc(-c3ncc4c(N5CCCSCC5)nc(OC[C@@]56CCCN5C[C@H](F)C6)nc4c3F)c12 [Example 342, 5-ethyl-6-fluoro-4-(8-fluoro-2-(((2R,7aS)-2-fluorohexahydro-1H-pyrrolizin-7a-yl)methoxy)-4-(1,4-thiazepan-4-yl)pyrido[4,3-d]pyrimidin-7-yl)naphthalen-2-ol] | 3 | ≤ 2 | ≤ 2 | 4 | 2240 | 23 | 46 | 167 | 203 | 470 | 62
CCc1c(F)ccc2cc(O)cc(-c3ncc4c(N5CCCOC(CO)C5)nc(OC[C@@]56CCCN5C[C@H](F)C6)nc4c3F)c12 (stereo partly drawn) [Example 343, 5-ethyl-6-fluoro-4-(8-fluoro-2-(((2R,7aS)-2-fluorotetrahydro-1H-pyrrolizin-7a(5H)-yl)methoxy)-4-(2-(hydroxymethyl)-1,4-oxazepan-4-yl)pyrido[4,3-d]pyrimidin-7-yl)naphthalen-2-ol] | ≤ 2 | ≤ 2 | ≤ 2 | 4 | 5930 | 60 | 24 | 91 | 128 | 128 | 7
CCc1c(F)ccc2cc(O)cc(-c3ncc4c(N5CCCc6nn(C(=O)N(C)C)cc6C5)nc(OC[C@@]56CCCN5C[C@H](F)C6)nc4c3F)c12 [Example 353, 5-(7-(8-ethyl-7-fluoro-3-hydroxynaphthalen-1-yl)-8-fluoro-2-(((2R,7aS)-2-fluorohexahydro-1H-pyrrolizin-7a-yl)methoxy)pyrido[4,3-d]pyrimidin-4-yl)-N,N-dimethyl-5,6,7,8-tetrahydropyrazolo[4,3-c]azepine-2(4H)-carboxamide] | ≤ 2 | ≤ 2 | ≤ 2 | 24 | 4810 | 7 | 34 | 80 | 149 | 396 | 19

From patent publication US12398154B2, “Azaquinazoline pan-KRas inhibitors” (Mirati Therapeutics, Inc., priority 2020, dated 2025)
